Experiments:
exosome secretion = experiment: Exosome secretion measured by protein concentration; assay type: cell-based
[1] = tested on: reconstituted dental epithelium and mesenchyme tissues; experiment: Organ culture of reconstituted E16.5 dental epithelium and mesenchyme tissue, dentin formation; assay type: cell-based; conditions: 10 uM, control formed dentin at day 10
Description: E16.5 epithelium and mesenchyme tissue (see e.g., FIG. 9A) were reconstituted (see e.g., FIG. 9B) under dissection microscope. The reconstituted organ were cultured for 12 days (see e.g., FIG. 9C-D).

O=C(/C=C/c1ccc(/C=C/C(=O)Nc2ccc(C3=NCCN3)cc2)cc1)Nc1ccc(C2=NCCN2)cc1 [GW4869]
exosome secretion (exosome secretion; 1.0 uM): decreased | exosome secretion (exosome secretion; 10.0 uM): decreased | dentin formation [1]: No dentin formed
